{"source": "patent US20200024278A1", "about": "“COMPOSITION COMPRISING ANTIBIOTIC COMPOUND AND AN HETEROCYCLIC COMPOUND AND THEIR USE IN PREVENTING OR TREATING BACTERIAL INFECTIONS” (MUTABILIS, priority 2016, published 2020)", "test_in_all_cases": "MIC, broth microdilution (CLSI), substance alone or ATB combined with compound at 4 or 8 μg/mL", "key": {"SPN 49619": {"test_system": "SPN 49619", "format": "cell-based, S. pneumoniae", "settings": "SPN 49619", "summary_of_the_method": "(§1)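 Broth microdilution; ca-MHB; 5·10^5 CFU/mL; 35° C, 16-20 h; compound alone or fixed 4/8 μg/mL with antibiotic series; endpoint = no visible growth.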"}, "ECL P99": {"test_system": "ECL P99", "format": "cell-based, E. cloacae", "settings": "ECL P99", "summary_of_the_method": "as §1"}, "KPN BAA-1898": {"test_system": "KPN BAA-1898", "format": "cell-based, K. pneumoniae", "settings": "KPN BAA-1898", "summary_of_the_method": "as §1"}, "KPN 6299": {"test_system": "KPN 6299", "format": "cell-based, K. pneumoniae", "summary_of_the_method": "as §1"}, "KPN UFR42": {"test_system": "KPN UFR42", "format": "cell-based, K. pneumoniae", "settings": "KPN UFR42", "summary_of_the_method": "as §1"}, "SAU 29213": {"test_system": "SAU 29213", "format": "cell-based, S. aureus", "settings": "SAU 29213", "summary_of_the_method": "as §1"}}}
{"smiles": "C[C@@H](O)[C@H]1C(=O)N2C(C(=O)O)=C(SCCN=CN)C[C@H]12", "note": "[IMI]", "values": [{"measurement": "MIC ATB combined with Example 11 @8 μg/ml", "setting": "SPN 49619; with Example 11 at 8 μg/ml", "result": "<=0.031 μg/mL"}, {"measurement": "MIC ATB combined with Example 12 @8 μg/ml", "setting": "SPN 49619; with Example 12 at 8 μg/ml", "result": "<0.031", "unit": "µg/mL"}, {"measurement": "MIC ATB combined with Example 13 @8 μg/ml", "setting": "SPN 49619; with Example 13 at 8 μg/ml", "result": "<=0.031 μg/mL"}, {"measurement": "MIC ATB combined with Example 14 @8 μg/ml", "setting": "SPN 49619; with Example 14 at 8 μg/ml", "result": "<0.031", "unit": "µg/mL"}, {"measurement": "MIC ATB combined with Example 15 @4 μgml", "setting": "SPN 49619; with Example 15 at 4 μg/ml", "result": "<0.031", "unit": "µg/mL"}, {"measurement": "MIC ATB combined with Example 16 @4 μg/ml", "setting": "SPN 49619; with Example 16 at 4 μg/ml", "result": "<0.031", "unit": "µg/mL"}, {"measurement": "MIC ATB alone", "setting": "ECL P99; antibiotic alone", "result": 0.25, "unit": "µg/mL"}, {"measurement": "MIC ATB combined with Example 1 @8 μg/ml", "setting": "ECL P99; with Example 1 @8 μg/ml", "result": "<0.031", "unit": "µg/mL"}, {"measurement": "MIC ATB combined with Example 1 @8 μg/ml", "setting": "ECL P99; with Example 1 at 8 μg/ml", "result": "<0.031", "unit": "µg/mL"}, {"measurement": "MIC ATB combined with Example 7 @8 μgml", "setting": "ECL P99; with Example 7 at 8 μg/ml", "result": 1, "unit": "µg/mL"}, {"measurement": "MIC ATB combined with Example 9 @4 μg/ml", "setting": "ECL P99; with Example 9 @4 μg/ml", "result": "<0.031", "unit": "µg/mL"}, {"measurement": "MIC ATB combined with Example 9 @4 μg/ml", "setting": "ECL P99; with Example 9 at 4 μg/ml", "result": "<0.031", "unit": "µg/mL"}, {"measurement": "MIC ATB combined with Example 11 @8 μg/ml", "setting": "ECL P99; with Example 11 at 8 μg/ml", "result": "<0.031", "unit": "µg/mL"}, {"measurement": "MIC ATB combined with Example 12 @8 μg/ml", "setting": "ECL P99; with Example 12 at 8 μg/ml", "result": "<0.031", "unit": "µg/mL"}, {"measurement": "MIC ATB combined with Example 13 @8 μg/ml", "setting": "ECL P99; with Example 13 at 8 μg/ml", "result": 0.063, "unit": "µg/mL"}, {"measurement": "MIC ATB combined with Example 14 @8 μg/ml", "setting": "ECL P99; with Example 14 at 8 μg/ml", "result": "<0.031", "unit": "µg/mL"}, {"measurement": "MIC ATB combined with Example 15 @4 μgml", "setting": "ECL P99; with Example 15 at 4 μg/ml", "result": "<0.031", "unit": "µg/mL"}, {"measurement": "MIC ATB combined with Example 16 @4 μg/ml", "setting": "ECL P99; with Example 16 at 4 μg/ml", "result": "<0.031", "unit": "µg/mL"}, {"measurement": "MIC ATB alone", "setting": "KPN BAA-1898; antibiotic alone", "result": 64, "unit": "µg/mL"}, {"measurement": "MIC ATB combined with Example 1 @8 μg/ml", "setting": "KPN BAA-1898; with Example 1 @8 μg/ml", "result": 2, "unit": "µg/mL"}, {"measurement": "MIC ATB combined with Example 1 @8 μg/ml", "setting": "KPN BAA-1898; with Example 1 at 8 μg/ml", "result": 2, "unit": "µg/mL"}, {"measurement": "MIC ATB combined with Example 7 @8 μgml", "setting": "KPN BAA-1898; with Example 7 at 8 μg/ml", "result": 16, "unit": "µg/mL"}, {"measurement": "MIC ATB combined with Example 9 @4 μg/ml", "setting": "KPN BAA-1898; with Example 9 @4 μg/ml", "result": "<0.031", "unit": "µg/mL"}, {"measurement": "MIC ATB combined with Example 9 @4 μg/ml", "setting": "KPN BAA-1898; with Example 9 at 4 μg/ml", "result": "<0.031", "unit": "µg/mL"}, {"measurement": "MIC ATB combined with Example 11 @8 μg/ml", "setting": "KPN BAA-1898; with Example 11 at 8 μg/ml", "result": "<0.031", "unit": "µg/mL"}, {"measurement": "MIC ATB combined with Example 12 @8 μg/ml", "setting": "KPN BAA-1898; with Example 12 at 8 μg/ml", "result": "<0.031", "unit": "µg/mL"}, {"measurement": "MIC ATB combined with Example 13 @8 μg/ml", "setting": "KPN BAA-1898; with Example 13 at 8 μg/ml", "result": 0.5, "unit": "µg/mL"}, {"measurement": "MIC ATB combined with Example 14 @8 μg/ml", "setting": "KPN BAA-1898; with Example 14 at 8 μg/ml", "result": "<0.031", "unit": "µg/mL"}, {"measurement": "MIC ATB combined with Example 15 @4 μgml", "setting": "KPN BAA-1898; with Example 15 at 4 μg/ml", "result": "<0.031", "unit": "µg/mL"}, {"measurement": "MIC ATB combined with Example 16 @4 μg/ml", "setting": "KPN BAA-1898; with Example 16 at 4 μg/ml", "result": "<0.031", "unit": "µg/mL"}, {"measurement": "MIC ATB alone", "setting": "KPN 6299; antibiotic alone", "result": 0.25, "unit": "µg/mL"}, {"measurement": "MIC ATB combined with Example 1 @8 μg/ml", "setting": "KPN 6299; with Example 1 @8 μg/ml", "result": 1, "unit": "µg/mL"}, {"measurement": "MIC ATB combined with Example 1 @8 μg/ml", "setting": "KPN 6299; with Example 1 at 8 μg/ml", "result": 1, "unit": "µg/mL"}, {"measurement": "MIC ATB combined with Example 7 @8 μgml", "setting": "KPN 6299; with Example 7 at 8 μg/ml", "result": 4, "unit": "µg/mL"}, {"measurement": "MIC ATB combined with Example 9 @4 μg/ml", "setting": "KPN 6299; with Example 9 @4 μg/ml", "result": "<0.031", "unit": "µg/mL"}, {"measurement": "MIC ATB combined with Example 9 @4 μg/ml", "setting": "KPN 6299; with Example 9 at 4 μg/ml", "result": "<0.031", "unit": "µg/mL"}, {"measurement": "MIC ATB combined with Example 11 @8 μg/ml", "setting": "KPN 6299; with Example 11 at 8 μg/ml", "result": "<0.031", "unit": "µg/mL"}, {"measurement": "MIC ATB combined with Example 12 @8 μg/ml", "setting": "KPN 6299; with Example 12 at 8 μg/ml", "result": "<0.031", "unit": "µg/mL"}, {"measurement": "MIC ATB combined with Example 13 @8 μg/ml", "setting": "KPN 6299; with Example 13 at 8 μg/ml", "result": 1, "unit": "µg/mL"}, {"measurement": "MIC ATB combined with Example 14 @8 μg/ml", "setting": "KPN 6299; with Example 14 at 8 μg/ml", "result": "<0.031", "unit": "µg/mL"}, {"measurement": "MIC ATB combined with Example 15 @4 μgml", "setting": "KPN 6299; with Example 15 at 4 μg/ml", "result": "<0.031", "unit": "µg/mL"}, {"measurement": "MIC ATB combined with Example 16 @4 μg/ml", "setting": "KPN 6299; with Example 16 at 4 μg/ml", "result": "<0.031", "unit": "µg/mL"}, {"measurement": "MIC ATB alone", "setting": "KPN UFR42; antibiotic alone", "result": 32, "unit": "µg/mL"}, {"measurement": "MIC ATB combined with Example 1 @8 μg/ml", "setting": "KPN UFR42; with Example 1 @8 μg/ml", "result": ">32", "unit": "µg/mL"}, {"measurement": "MIC ATB combined with Example 1 @8 μg/ml", "setting": "KPN UFR42; with Example 1 at 8 μg/ml", "result": ">32", "unit": "µg/mL"}, {"measurement": "MIC ATB combined with Example 7 @8 μgml", "setting": "KPN UFR42; with Example 7 at 8 μg/ml", "result": ">32", "unit": "µg/mL"}, {"measurement": "MIC ATB combined with Example 9 @4 μg/ml", "setting": "KPN UFR42; with Example 9 @4 μg/ml", "result": 32, "unit": "µg/mL"}, {"measurement": "MIC ATB combined with Example 9 @4 μg/ml", "setting": "KPN UFR42; with Example 9 at 4 μg/ml", "result": 32, "unit": "µg/mL"}, {"measurement": "MIC ATB combined with Example 11 @8 μg/ml", "setting": "KPN UFR42; with Example 11 at 8 μg/ml", "result": "<0.031", "unit": "µg/mL"}, {"measurement": "MIC ATB combined with Example 12 @8 μg/ml", "setting": "KPN UFR42; with Example 12 at 8 μg/ml", "result": "<0.031", "unit": "µg/mL"}, {"measurement": "MIC ATB combined with Example 13 @8 μg/ml", "setting": "KPN UFR42; with Example 13 at 8 μg/ml", "result": ">32", "unit": "µg/mL"}, {"measurement": "MIC ATB combined with Example 14 @8 μg/ml", "setting": "KPN UFR42; with Example 14 at 8 μg/ml", "result": "<0.031", "unit": "µg/mL"}, {"measurement": "MIC ATB combined with Example 15 @4 μgml", "setting": "KPN UFR42; with Example 15 at 4 μg/ml", "result": "<0.031", "unit": "µg/mL"}, {"measurement": "MIC ATB combined with Example 16 @4 μg/ml", "setting": "KPN UFR42; with Example 16 at 4 μg/ml", "result": "<0.031", "unit": "µg/mL"}, {"measurement": "MIC ATB alone", "setting": "SAU 29213; antibiotic alone", "result": 0.016, "unit": "µg/mL"}, {"measurement": "MIC ATB combined with Example 1 @8 μg/ml", "setting": "SAU 29213; with Example 1 @8 μg/ml", "result": "<=0.031 μg/mL"}, {"measurement": "MIC ATB combined with Example 1 @8 μg/ml", "setting": "SAU 29213; with Example 1 at 8 μg/ml", "result": "<=0.031 μg/mL"}, {"measurement": "MIC ATB combined with Example 7 @8 μgml", "setting": "SAU 29213; with Example 7 at 8 μg/ml", "result": 0.25, "unit": "µg/mL"}, {"measurement": "MIC ATB combined with Example 9 @4 μg/ml", "setting": "SAU 29213; with Example 9 @4 μg/ml", "result": "<0.031", "unit": "µg/mL"}, {"measurement": "MIC ATB combined with Example 9 @4 μg/ml", "setting": "SAU 29213; with Example 9 at 4 μg/ml", "result": "<0.031", "unit": "µg/mL"}, {"measurement": "MIC ATB combined with Example 11 @8 μg/ml", "setting": "SAU 29213; with Example 11 at 8 μg/ml", "result": "<0.031", "unit": "µg/mL"}, {"measurement": "MIC ATB combined with Example 12 @8 μg/ml", "setting": "SAU 29213; with Example 12 at 8 μg/ml", "result": "<0.031", "unit": "µg/mL"}, {"measurement": "MIC ATB combined with Example 13 @8 μg/ml", "setting": "SAU 29213; with Example 13 at 8 μg/ml", "result": "<=0.031 μg/mL"}, {"measurement": "MIC ATB combined with Example 14 @8 μg/ml", "setting": "SAU 29213; with Example 14 at 8 μg/ml", "result": "<0.031", "unit": "µg/mL"}, {"measurement": "MIC ATB combined with Example 15 @4 μgml", "setting": "SAU 29213; with Example 15 at 4 μg/ml", "result": "<0.031", "unit": "µg/mL"}, {"measurement": "MIC ATB combined with Example 16 @4 μg/ml", "setting": "SAU 29213; with Example 16 at 4 μg/ml", "result": "<0.031", "unit": "µg/mL"}]}
